Results published in PMC4024383 (European journal of medicinal chemistry, 2014).

Legend:
Src kinase = experiment: Src radioactive kinase assay; conditions: ratio of IC50s
[1] = Human cell growth inhibition assay; type: cell-based; conditions: HepG2 cells (liver)
[2] = tested on: P. falciparum gametocyte exflagellation; experiment: P. falciparum exflagellation assay; type: cell-based; conditions: Plasmodium falciparum, read-out: P. falciparum exflagellation inhibition EC50
recombinant PfCDPK4 = recombinant PfCDPK4 (Plasmodium falciparum, UniProt Q8IBS5); experiment: PfCDPK4 luminescence-based; type: biochemical; conditions: for fold more potent against PfCDPK4 than PfCDPK1: ratio of IC50s
Sequence of recombinant PfCDPK4 (Q8IBS5 whole entry): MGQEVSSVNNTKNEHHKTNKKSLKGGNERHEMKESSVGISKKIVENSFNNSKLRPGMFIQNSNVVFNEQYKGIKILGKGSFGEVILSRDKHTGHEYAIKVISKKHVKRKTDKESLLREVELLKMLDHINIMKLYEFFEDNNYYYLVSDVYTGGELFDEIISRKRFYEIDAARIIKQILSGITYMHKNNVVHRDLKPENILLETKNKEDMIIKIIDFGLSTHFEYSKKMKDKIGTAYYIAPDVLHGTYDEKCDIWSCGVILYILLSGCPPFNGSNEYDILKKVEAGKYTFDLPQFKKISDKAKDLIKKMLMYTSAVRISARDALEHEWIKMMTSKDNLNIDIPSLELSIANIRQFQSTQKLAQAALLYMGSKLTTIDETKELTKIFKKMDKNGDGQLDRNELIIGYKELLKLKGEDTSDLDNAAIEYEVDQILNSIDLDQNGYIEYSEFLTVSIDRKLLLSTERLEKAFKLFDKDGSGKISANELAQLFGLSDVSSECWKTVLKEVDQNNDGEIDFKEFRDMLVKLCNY

Abl tyrosine kinase = molecular target: T1, Abl tyrosine kinase (Homo sapiens, UniProt P00519); experiment: Abl radioactive kinase assay; type: biochemical
T1 sequence (P00519 229-512 limits assumed): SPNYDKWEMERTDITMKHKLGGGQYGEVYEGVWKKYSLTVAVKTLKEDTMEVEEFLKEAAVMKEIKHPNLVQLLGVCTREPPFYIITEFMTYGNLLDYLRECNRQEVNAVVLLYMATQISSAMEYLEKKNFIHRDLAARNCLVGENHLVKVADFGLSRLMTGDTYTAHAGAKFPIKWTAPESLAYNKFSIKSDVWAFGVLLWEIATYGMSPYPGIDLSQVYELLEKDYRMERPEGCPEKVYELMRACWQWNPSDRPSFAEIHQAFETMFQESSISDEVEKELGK

[3] = Human cell growth inhibition assay; type: cell-based; conditions: CRL-8155 cells (lymphocytic)
PfCDPK1 = PfCDPK1 enzymatic assay; type: biochemical, Plasmodium falciparum; conditions: ratio of IC50s

Structure (SMILES): CCOc1ccc2cc(-c3nn(CC4CNC4)c4ncnc(N)c34)ccc2c1 [17g, 1-(azetidin-3-ylmethyl)-3-(6-ethoxynaphthalen-2-yl)-1H-pyrazolo[3,4-d]pyrimidin-4-amine]
- selectivity for PfCDPK4 over Src (Src kinase): greater than 1300 fold

Structure (SMILES): CCOc1ccc2cc(-c3nn(CC(C)C)c4ncnc(N)c34)ccc2c1 [17q, 3-(6-ethoxynaphthalen-2-yl)-1-isobutyl-1H-pyrazolo[3,4-d]pyrimidin-4-amine]
- GI50 [1]: > 30000 nM
- EC50 [2]: < 40 nM
- IC50 (recombinant PfCDPK4): 14 nM
- fold more potent against PfCDPK4 than i-Pr analog 17a (recombinant PfCDPK4; relative to 17a): more than 30 fold
- IC50 (Abl tyrosine kinase): 2700 nM
- GI50 [3]: > 30000 nM

Structure (SMILES): CCOc1ccc2cc(-c3nn(C(C)C)c4ncnc(N)c34)ccc2n1 [30a, 3-(2-ethoxyquinolin-6-yl)-1-isopropyl-1H-pyrazolo[3,4-d]pyrimidin-4-amine]
- IC50 (recombinant PfCDPK4): < 20 nM
- fold more potent against PfCDPK4 than PfCDPK1 (recombinant PfCDPK4): > 5 fold

Structure (SMILES): CCOc1ccc2cc(-c3nn(CC(C)(C)CO)c4ncnc(N)c34)ccc2n1 [30u, 3-(4-amino-3-(2-ethoxyquinolin-6-yl)-1H-pyrazolo[3,4-d]pyrimidin-1-yl)-2,2-dimethylpropan-1-ol]
- GI50 [1]: > 30000 nM
- EC50 [2]: < 40 nM
- IC50 (recombinant PfCDPK4): 4 nM
- IC50 (Abl tyrosine kinase): > 10000 nM
- GI50 [3]: > 30000 nM

Structure (SMILES): CCOc1ccc2cc(-c3nn(C(C)C)c4ncnc(N)c34)cc(C)c2n1 [31a, 3-(2-ethoxy-8-methylquinolin-6-yl)-1-isopropyl-1H-pyrazolo[3,4-d]pyrimidin-4-amine]
- fold more potent against PfCDPK4 than PfCDPK1 (recombinant PfCDPK4): > 5 fold

Structure (SMILES): CC(C)n1nc(-c2ccc3nc(OCc4ccccc4)ccc3c2)c2c(N)ncnc21 [33a, 3-(2-(benzyloxy)quinolin-6-yl)-1-isopropyl-1H-pyrazolo[3,4-d]pyrimidin-4-amine]
- fold more potent against PfCDPK1 than PfCDPK4 (PfCDPK1): > 3 fold

Structure (SMILES): Nc1ncnc2c1c(-c1ccc3cc(OC4CC4)ccc3c1)nn2CC1CCNCC1 [37j, 3-(6-cyclopropoxynaphthalen-2-yl)-1-(piperidin-4-ylmethyl)-1H-pyrazolo[3,4-d]pyrimidin-4-amine]
- GI50 [1]: > 30000 nM
- EC50 [2]: < 40 nM
- IC50 (recombinant PfCDPK4): 2 nM
- GI50 [3]: > 30000 nM
